How the values were obtained:
Cdc27 [1] = biological target: T1, Cdc27 (Homo sapiens, UniProt P30260); experiment: Cdc27 immunoblot, molecular weight shift (crosslinking) in treated DAOY cells; assay type: cell-based
T1 construct: endogenous in cells; host or cells: DAOY medulloblastoma cells
Protocol: Cell lysates were prepared in a buffer containing 20 mM Iris (pH 7.5), 150 mM NaCl, 1 mM EDTA, 1 mM EGTA, 0.1% Triton X-100, 2.5 mM sodium pyrophosphate, 1 mM β-glycerol phosphate, 1 mM sodium vanadate, 1 mM phenylmethylsulfonyl fluoride and 5 μg/ml of antipapain, leupeptin and pepstatin (protease inhibitor cocktail). Protein concentrations were determined by the Dc protein assay (Bio-Rad, Hercules, Calif.). Equal amounts of protein were resolved by SDS-PAGE and transferred to nitrocellulose. The membranes were blocked in 5% non-fat milk in Tris-buffered saline with 0.1% Tween-20 (TBST). Primary antibodies diluted in 5% bovine serum albumin/TBST were incubated overnight at 4° C. and HRP-conjugated secondary antibodies in 5% non-fat milk/TBST for 2 hours at room temperature. Protein bands were visualized by Enhanced Chemiluminescence Plus (GE Healthcare, Piscataway, N.J.).

[2] = test system: APC2, p55Cdc20, cyclins A and E, APC7, APC8; experiment: Immunoblotting of APC/C subunits and other cell cycle related proteins in DAOY cells; assay type: cell-based, human; conditions: control vs curcumin-treated DAOY cells, immunoblot
Protocol: (§1) Cell lysates were prepared in a buffer containing 20 mM Tris (pH 7.5), 150 mM NaCl, 1 mM EDTA, 1 mM EGTA, 0.1% Triton X-100, 2.5 mM sodium pyrophosphate, 1 mM β-glycerol phosphate, 1 mM sodium vanadate, 1 mM phenylmethylsulfonyl fluoride and 5 μg/ml of antipapain, leupeptin and pepstatin (protease inhibitor cocktail). Protein concentrations were determined by the Dc protein assay (Bio-Rad, Hercules, Calif.). Equal amounts of protein were resolved by SDS-PAGE and transferred to nitrocellulose. The membranes were blocked in 5% non-fat milk in Tris-buffered saline with 0.1% […] (TBST). Primary antibodies diluted in 5% bovine serum albumin/TBST were incubated overnight at 4° C. and HRP-conjugated secondary antibodies in 5% non-fat milk/TBST for 2 hours at room temperature. Protein bands were visualized by Enhanced Chemiluminescence Plus (GE Healthcare, Piscataway, N.J.).
Cell lysates were prepared in a buffer containing 20 mM Iris (pH 7.5), 150 mM NaCl, 1 mM EDTA, 1 mM EGTA, 0.1% Triton X-100, 2.5 mM sodium pyrophosphate, 1 mM β-glycerol phosphate, 1 mM sodium vanadate, 1 mM phenylmethylsulfonyl fluoride and 5 μg/ml of antipapain, leupeptin and pepstatin (protease inhibitor cocktail). Protein concentrations were determined by the Dc protein assay (Bio-Rad, Hercules, Calif.). Equal amounts of protein were resolved by SDS-PAGE and transferred to nitrocellulose. […]

Cdc27 [3] = biological target: T1, Cdc27; experiment: Pull-down from DAOY cell lysates with curcumin-bound Sepharose beads; assay type: binding; conditions: two independent bead preparations, vs control beads
Protocol: After washing, unoccupied binding sites were blocked with 1 M ethanolamine by overnight incubation. Low (0.1 M acetate buffer, pH 4) and high (0.1 M Tris-HCl, pH 8, 0.5 M NaCl) pH buffers were used each three times to wash and equilibrate the beads. Control beads were prepared in parallel with curcumin-coupled beads but curcumin was omitted. DAOY cell lysates were prepared in a lysis buffer of 100 mM HEPES, pH 7.6, 300 mM NaCl, 0.1% Triton X-100, 2 mM EDTA, 2 mM EGTA supplemented with phosphatase and protease inhibitors. 500 μg of protein was mixed with 20 μl of curcumin-coupled Sepharose beads and incubated for 3 hours at 4° C. After washing bound proteins were eluted with 1×SDS-PAGE sample buffer and processed for immunoblotting.
DAOY cell lysates were incubated with curcumin-bound Sepharose beads and then subjected to SDS-PAGE and immunoblotting with Cdc27. A BubR1 immunoblot was included as control for non-specific binding. […] The cell lysates were separated by SDS-PAGE and immunoblotted for Cdc27. […] Data represent mean±SEM of three independent experiments.

[4] = biological target: T2, Cdc27 association with p55Cdc20, APC2, APC8 (Homo sapiens, UniProt P30260); experiment: Co-immunoprecipitation with anti-Cdc27 antibodies; assay type: cell-based; conditions: DAOY, curcumin for 8 hours
T2 construct: endogenous in cells
Protocol: For immunoprecipitation, cells were lysed at 4° C. for 30 min in a buffer of 50 mM HEPES, pH 7.4, 150 mM NaCl 0.5% NP-40, 1 mM EDTA, 1 mM Na3VO4, 1 mM aprotinin, 1 mM leupeptin and 1 mM PMSF. Equal amounts of protein (from 0.5 to 2 mg) were incubated with Cdc27 antibody for 4 hours at 4° C. followed by protein G-Sepharose (GE Healthcare) for 2 hours, washed extensively, and analyzed by immunoblotting with indicated antibodies. For λ-phosphatase treatment, Cdc27 was immunoprecipitated as above except that phosphatase and protease inhibitors were omitted and then incubated with λ-[…]phosphatase according to the manufacturer's protocol (New England Biolabs, Ipswich, Mass.).
Proper APC/C function requires co-activator proteins such as Cdc20 or Cdh1 that may facilitate the recruitment of substrates. […] Cell lysates were subjected to immunoprecipitation with anti-Cdc27 antibodies. Immunoprecipitated proteins were immunoblotted with antibodies to APC2, APC8, p55 Cdc20 or Cdh1. Immunoblots of total cell lysates are shown to ensure equal loading. […] Under the experimental conditions used, Cdh1 was not found to be associating with Cdc27 (FIG. 8C).

[5] = biological target: T3, cystic fibrosis transmembrane conductance regulator (CFTR) (Homo sapiens, UniProt P13569); conditions: in microsomes and in intact cells; cited from earlier work
T3 construct: host or cells: microsomes and intact cells (not further described)
T3 sequence (P13569 whole entry, species assumed): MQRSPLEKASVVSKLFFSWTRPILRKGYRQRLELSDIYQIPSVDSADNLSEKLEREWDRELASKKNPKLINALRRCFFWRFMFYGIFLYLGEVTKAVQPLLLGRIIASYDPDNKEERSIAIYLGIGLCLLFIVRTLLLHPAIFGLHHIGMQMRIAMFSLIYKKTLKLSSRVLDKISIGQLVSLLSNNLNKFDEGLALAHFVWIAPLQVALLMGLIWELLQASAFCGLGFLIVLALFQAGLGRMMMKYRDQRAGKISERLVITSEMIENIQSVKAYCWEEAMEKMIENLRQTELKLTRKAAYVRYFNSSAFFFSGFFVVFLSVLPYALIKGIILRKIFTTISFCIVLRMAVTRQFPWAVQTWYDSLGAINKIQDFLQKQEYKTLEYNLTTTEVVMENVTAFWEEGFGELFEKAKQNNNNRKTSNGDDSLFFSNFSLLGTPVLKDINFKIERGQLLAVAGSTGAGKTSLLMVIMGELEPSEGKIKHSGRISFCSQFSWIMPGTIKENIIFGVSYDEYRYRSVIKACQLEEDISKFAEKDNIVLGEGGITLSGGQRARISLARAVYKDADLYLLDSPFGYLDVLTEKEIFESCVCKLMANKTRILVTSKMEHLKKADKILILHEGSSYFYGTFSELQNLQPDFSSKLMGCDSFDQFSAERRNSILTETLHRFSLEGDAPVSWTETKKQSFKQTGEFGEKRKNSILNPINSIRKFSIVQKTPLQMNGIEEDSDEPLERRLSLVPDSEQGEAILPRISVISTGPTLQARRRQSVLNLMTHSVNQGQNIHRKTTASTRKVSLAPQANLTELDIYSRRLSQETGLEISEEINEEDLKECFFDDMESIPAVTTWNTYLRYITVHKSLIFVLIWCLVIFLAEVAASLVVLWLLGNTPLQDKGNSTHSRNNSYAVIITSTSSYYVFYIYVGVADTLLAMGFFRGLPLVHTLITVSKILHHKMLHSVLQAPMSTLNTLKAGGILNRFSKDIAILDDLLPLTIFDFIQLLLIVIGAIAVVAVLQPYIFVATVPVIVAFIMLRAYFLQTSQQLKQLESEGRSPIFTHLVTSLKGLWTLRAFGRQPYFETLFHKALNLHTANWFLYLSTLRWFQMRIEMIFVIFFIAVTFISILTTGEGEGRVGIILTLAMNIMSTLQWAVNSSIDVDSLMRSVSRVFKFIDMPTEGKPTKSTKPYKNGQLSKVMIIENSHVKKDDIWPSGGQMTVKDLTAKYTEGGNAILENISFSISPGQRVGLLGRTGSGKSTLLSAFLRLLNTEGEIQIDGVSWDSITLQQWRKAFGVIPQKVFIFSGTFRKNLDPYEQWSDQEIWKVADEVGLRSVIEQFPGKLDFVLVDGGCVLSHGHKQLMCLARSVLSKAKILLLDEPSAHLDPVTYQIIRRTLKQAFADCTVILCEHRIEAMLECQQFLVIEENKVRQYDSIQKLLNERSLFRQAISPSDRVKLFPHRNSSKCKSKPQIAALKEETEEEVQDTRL

Cdc27 [6] = experiment: Cdc27 immunoblot of cell lines after curcumin treatment; assay type: cell-based; conditions: 20 μM curcumin for 0, 4, 8 and 24 hours; DAOY, NT2, D283 Med, D341 Med, HCT116, HT1376, RT4, MDCK
Protocol: as §1
The cell lines DAOY, NT2, D283 Med, D341 Med (brain); HCT116 (colon); HT1376, RT4 (bladder); MDCK (kidney) were screened for Cdc27 phosphorylation by immunoblot of Cdc27. […] Actin immunoblot is shown as loading control.
Arrows indicate crosslinked Cdc27, while arrowheads show phosphorylated Cdc27. Equal amounts of protein were used as shown by actin immunoblot.

Cdc27 [7] = biological target: T4, Cdc27 (Mus musculus, UniProt A2A6Q5); experiment: Cdc27 immunoblot of medulloblastoma samples from treated Smo/Smo mice; assay type: in vivo; conditions: curcumin-treated vs corn oil control mice
T4 construct: from tissue; host or cells: medulloblastoma tumours of Smo/Smo mice
T4 sequence (A2A6Q5 whole entry): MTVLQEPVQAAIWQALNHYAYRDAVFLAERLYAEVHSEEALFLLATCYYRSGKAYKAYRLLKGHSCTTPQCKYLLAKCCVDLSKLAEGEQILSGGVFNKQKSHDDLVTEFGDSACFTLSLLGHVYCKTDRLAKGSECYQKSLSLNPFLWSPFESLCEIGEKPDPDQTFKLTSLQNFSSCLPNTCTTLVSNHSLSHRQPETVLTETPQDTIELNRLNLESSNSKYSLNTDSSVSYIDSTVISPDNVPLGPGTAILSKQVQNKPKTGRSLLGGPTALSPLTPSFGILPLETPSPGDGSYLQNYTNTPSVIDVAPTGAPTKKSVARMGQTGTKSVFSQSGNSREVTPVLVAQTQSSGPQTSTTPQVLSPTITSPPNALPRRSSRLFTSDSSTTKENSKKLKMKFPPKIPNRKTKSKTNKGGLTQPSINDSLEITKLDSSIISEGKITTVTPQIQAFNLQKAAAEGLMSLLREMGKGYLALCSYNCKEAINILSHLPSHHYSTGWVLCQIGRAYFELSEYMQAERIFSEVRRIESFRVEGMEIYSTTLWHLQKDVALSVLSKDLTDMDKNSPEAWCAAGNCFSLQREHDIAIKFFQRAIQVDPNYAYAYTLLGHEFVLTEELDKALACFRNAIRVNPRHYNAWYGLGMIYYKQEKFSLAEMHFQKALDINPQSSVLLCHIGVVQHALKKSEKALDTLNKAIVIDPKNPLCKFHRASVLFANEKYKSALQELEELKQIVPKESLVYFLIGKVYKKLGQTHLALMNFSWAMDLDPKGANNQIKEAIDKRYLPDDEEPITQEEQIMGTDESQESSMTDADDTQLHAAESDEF
Protocol: Tumors of control and curcumin-treated mice were harvested exactly as described (Lee et al., 2011, BMC Cancer 11:144). Animal experiments were performed according to the NIH Guide for the Care and Use of Experimental Animals and approved by our Institutional Animal Care and Use Committee.
Cdc27 levels in the Smo/Smo mouse tumors were determined by immunoblot of Cdc27. Tubulin is shown for equal loading. The Cdc27 levels were reduced (FIG. 4) when compared with control mice.

medulloblastoma cells = conditions: cited from earlier work

T1 sequence (P30260 1-830 isoform P30260-2): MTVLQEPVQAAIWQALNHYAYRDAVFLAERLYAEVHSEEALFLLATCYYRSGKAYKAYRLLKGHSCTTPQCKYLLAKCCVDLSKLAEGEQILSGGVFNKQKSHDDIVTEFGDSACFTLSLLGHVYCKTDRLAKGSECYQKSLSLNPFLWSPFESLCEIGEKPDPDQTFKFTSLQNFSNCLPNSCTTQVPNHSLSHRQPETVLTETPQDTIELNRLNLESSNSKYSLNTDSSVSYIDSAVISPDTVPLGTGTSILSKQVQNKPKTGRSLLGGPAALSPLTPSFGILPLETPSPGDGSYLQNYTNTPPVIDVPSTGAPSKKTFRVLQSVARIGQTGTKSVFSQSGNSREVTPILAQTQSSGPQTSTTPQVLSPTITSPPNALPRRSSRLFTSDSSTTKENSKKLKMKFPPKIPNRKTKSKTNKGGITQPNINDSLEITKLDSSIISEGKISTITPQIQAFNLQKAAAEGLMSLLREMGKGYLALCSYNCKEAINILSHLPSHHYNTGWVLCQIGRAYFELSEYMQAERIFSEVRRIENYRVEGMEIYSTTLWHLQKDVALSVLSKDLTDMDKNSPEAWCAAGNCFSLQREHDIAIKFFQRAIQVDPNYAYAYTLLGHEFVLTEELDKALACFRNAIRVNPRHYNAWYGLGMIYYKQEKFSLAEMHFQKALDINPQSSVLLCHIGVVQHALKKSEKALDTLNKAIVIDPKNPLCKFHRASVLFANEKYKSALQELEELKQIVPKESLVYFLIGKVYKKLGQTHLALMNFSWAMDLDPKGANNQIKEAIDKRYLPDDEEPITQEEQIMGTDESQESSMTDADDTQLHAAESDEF

induction of high molecular weight bands of Cdc27 (crosslinking) (Cdc27 [1]; DAOY, 0, 3, 6, 9 or 24 hours): induces the formation of Cdc27 dimers
high molecular weight (MW) band of Cdc27 (Cdc27 [1]; curcumin-treated DAOY cells, immunoblot): approximately double the MW of Cdc27
pull-down of Cdc27 by curcumin-bound Sepharose beads (Cdc27 [3]): pulled down Cdc27
Cdc27 association with the APC/C subunits APC2 and APC8 [4]: not affected
p55Cdc20 association with Cdc27 ([4]; compared to control cells): dramatically reduced
Cdc27 levels in Smo/Smo mouse tumors (Cdc27 [7]): reduced
Compound: COc1cc(/C=C/C(=O)CC(=O)/C=C/c2ccc(O)c(OC)c2)ccc1O [Curcumin, (E,E)-1,7-bis(4-hydroxy-3-methoxyphenyl)-1,6-heptadiene-3,5-dion]
expression of cyclin A and E [2]: No noticeable changes
levels of APC2 and p55Cdc20 [2]: comparable in control and curcumin-treated cells
crosslinking of CFTR polypeptides [5]: can crosslink CFTR polypeptides into SDS-resistant oligomers
crosslinking of Cdc27 in cell lines (Cdc27 [6]): Only in cell lines with the phosphorylated form of Cdc27 was curcumin able to crosslink Cdc27
cell cycle arrest and apoptosis (medulloblastoma cells): induces G2/M arrest and apoptosis

Source: patent publication US8835124B2, “Method for treating cancer with agents that bind phosphorylated CDC27” (The Nemours Foundation, priority 2011, dated 2014)
